What was measured:
[1] = target: human cathepsin K (UniProt P43236); assay: Cathepsin K Assay (hrbCat K); assay type: biochemical; settings: Z-Leu-Arg-AMC substrate, pH 5.5, 15 min preincubation; read-out: hrbCat K (IP (nM))
Method: Cathepsin K Assay (hrbCat K)
(§1) Then 0.5 μL of DMSO from each dilution were added to 18.75 μL of assay buffer (MES, 50 mM (pH 5.5); EDTA, 2.5 mM; DTT, 2.5 mM and 10% DMSO) containing human cathepsin K (0.4 nM) in assay buffer solution. The assay solutions were mixed for 5-10 seconds on a shaker plate and incubated for 15 minutes at room temperature. Z-Leu-Arg-AMC (8 μM) in 6.25 μL of assay buffer was added to the assay solutions. Hydrolysis of the coumarin leaving group (AMC) was followed by spectrofluorometry (Exλ=360 nm; Emλ=460 nm) for 30 minutes. Percent of inhibition were calculated by fitting experimental values to standard mathematical model for dose response curve.

[2] = target: T1, human cathepsin F (Homo sapiens, UniProt Q9UBX1); assay: Cathepsin F assay (hCat F); assay type: biochemical; settings: Z-Phe-Arg-AMC substrate, pH 5.5, 15 min preincubation; read-out: hCat F (IP (nM))
T1 sequence (Q9UBX1 271-484): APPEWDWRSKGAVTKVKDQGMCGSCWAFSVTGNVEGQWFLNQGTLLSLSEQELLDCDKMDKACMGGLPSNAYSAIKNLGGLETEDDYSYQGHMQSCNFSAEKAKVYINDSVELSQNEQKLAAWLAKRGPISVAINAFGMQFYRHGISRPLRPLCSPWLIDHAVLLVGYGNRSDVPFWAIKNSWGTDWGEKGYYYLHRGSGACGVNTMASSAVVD
Method: Cathepsin F assay (hCat F)
as §1, with “Serial dilutions (1/3) from 500 μM down to 0.025 μM of test compounds were prepared in dimethyl sulfoxide (DMSO). Then” for “Then”, “F (10” for “K (0.4”, “Z-Phe-Arg-AMC” for “Z-Leu-Arg-AMC”, “20” for “30”

| Structure (SMILES) | IC50 [1] [nM] | IC50 [2] [nM] |
| --- | --- | --- |
| N#CCNC(=O)[C@@H]1C[C@@H](F)CC[C@H]1c1nc(-c2cncc(F)c2)sc1-c1ccc(N2CCS(=O)(=O)CC2)cc1 [Example 123, (1R,2R,5S)-N-(cyanomethyl)-2-(5-(4-(1,1-dioxidothiomorpho-lino)phenyl)-2-(5-fluoropyridin-3-yl)thiazol-4-yl)-5-fluorocyclohexane-carboxamide] | 1.7 | 2490 |
| CS(=O)(=O)c1ccc(-c2oc(-c3ccccc3)nc2C2CCC(F)(F)CC2C(=O)NCC#N)cc1 (racemic) [Example 162, (1R,2R and 1S,2S)-N-(cyanomethyl)-5,5-difluoro-2-(5-(4-(methylsulfonyl)phenyl)-2-phenyloxazol-4-yl)cyclohexane-carboxamide] | 2.7 | 49 |
| N#CC1(NC(=O)[C@@H]2C[C@@H](F)CC[C@H]2c2nc(-c3ccc(F)cc3)sc2-c2ccc(N3CCS(=N)(=O)CC3)cc2)CC1 [Example 176, (1R,2R,5S)-N-(1-cyanocyclopropyl)-5-fluoro-2-(2-(4-fluorophenyl)-5-(4-(1-imino-1-oxidothiomorpholino)phenyl)thiazol-4-yl)cyclohexane-carboxamide] | 3.2 | 3330 |
| N#CC1(NC(=O)[C@@H]2CCCC[C@H]2c2nc(C(O)C(F)(F)F)sc2-c2ccc(N3CCS(=O)(=O)CC3)cc2)CC1 (mixture of isomers) [Example 228, (1R,2R)-N-(1-cyanocyclopropyl)-2-(5-(4-(1,1-dioxidothiomorpho-lino)phenyl)-2-((R and S)-2,2,2-trifluoro-1-hydroxyethyl)thia-zol-4-yl)cyclohexane-carboxamide] | 5.1 | 5390 |
| N#CCNC(=O)C1CCCCC1c1nc(-c2ccccc2)sc1-c1ccc(N2CCS(=O)(=O)CC2)cc1 (racemic) [Example 247, N-(cyanomethyl)-2-(5-(4-(1,1-dioxidothiomorpho-lino)phenyl)-2-phenylthiazol-4-yl)cyclohexane-carboxamide] | 2.1 | 229 |
| N#CC1(NC(=O)[C@@H]2CCCC[C@H]2c2nc(-c3ccnc(C(F)(F)F)c3)sc2-c2ccc(N3CCS(=O)(=O)CC3)cc2)CC1 [Example 96, (1R,2R)-N-(1-cyanocyclopropyl)-2-(5-(4-(1,1-dioxidothiomorpho-lino)phenyl)-2-(2-(trifluoromethyl)pyridin-4-yl)thiazol-4-yl)cyclohexane-carboxamide] | 2.1 | 1920 |
| N#CC1(NC(=O)[C@@H]2CC(F)(F)CC[C@H]2c2nc(CCC(F)(F)F)sc2-c2ccc(N3CCS(=O)(=O)CC3)cc2)CC1 [Example 23, (1R,2R)-N-(1-cyanocyclopropyl)-2-(5-(4-(1,1-dioxidothiomorpho-lino)phenyl)-2-(3,3,3-trifluoropropyl)thia-zol-4-yl)-5,5-difluorocyclohexane-carboxamide] | 1.1 | 223 |
| N#CC1(NC(=O)[C@@H]2CCCC[C@H]2c2nc(C3(c4ccccc4)CC3)sc2-c2ccc(N3CCS(=O)(=O)CC3)cc2)CC1 [Example 175, (1R,2R)-N-(1-cyanocyclopropyl)-2-(5-(4-(1,1-dioxidothiomorpho-lino)phenyl)-2-(1-phenylcyclopropyl)thiazol-4-yl)cyclohexane-carboxamide] | 2.1 | 1000 |
| Cc1nc([C@@H]2CC[C@H](F)C[C@H]2C(=O)NC2(C#N)CC2)c(-c2ccc(N3CCS(=O)(=O)CC3)cc2)s1 [Example 205, (1R,2R,5S)-N-(1-cyanocyclopropyl)-2-(5-(4-(1,1-dioxidothiomorpho-lino)phenyl)-2-methylthiazol-4-yl)-5-fluorocyclohexane-carboxamide] | 6.4 | ≥ 10000 |
| N#CC1(NC(=O)[C@@H]2C[C@@H](F)CC[C@H]2c2nc(CF)sc2-c2ccc(N3CCS(=O)(=O)CC3)cc2)CC1 [Example 238, (1R,2R,5S)-N-(1-cyanocyclopropyl)-2-(5-(4-(1,1-dioxidothiomorpho-lino)phenyl)-2-(fluoromethyl)thia-zol-4-yl)-5-fluorocyclohexane-carboxamide] | 3.5 | 3170 |
| N#CC1(NC(=O)[C@@H]2CCCC[C@H]2c2nc(C3CCCOC3)sc2-c2ccc(N3CCS(=O)(=O)CC3)cc2)CC1 (stereo partly drawn) [Example 146, (1R,2R)-N-(1-cyanocyclopropyl)-2-(5-(4-(1,1-dioxidothiomorpho-lino)phenyl)-2-(tetrahydro-2H-pyran-3-yl)thiazol-4-yl)cyclohexane-carboxamide] | 4.6 | 1000 |
| N#CC1(NC(=O)[C@@H]2CCCC[C@H]2c2nc(-c3cncc(F)c3)sc2-c2ccc(N3CCS(=N)(=O)CC3)cc2)CC1 [Example 135, (1R,2R)-N-(1-cyanocyclopropyl)-2-(2-(5-fluoropyridin-3-yl)-5-(4-(1-imino-1-oxidothiomorpholino)phenyl)thiazol-4-yl)cyclohexane-carboxamide] | 1.2 | 1560 |
| N#Cc1cccc(-c2nc([C@@H]3CCCC[C@H]3C(=O)NC3(C#N)CC3)c(-c3ccc(N4CCS(=O)(=O)CC4)cc3)s2)c1 [Example 66, (1R,2R)-N-(1-cyanocyclopropyl)-2-(2-(3-cyanophenyl)-5-(4-(1,1-dioxidothiomorpho-lino)phenyl)thiazol-4-yl)cyclohexane-carboxamide] | 2 | 1410 |
| N#CC1(NC(=O)[C@@H]2CCCC[C@H]2c2nc(-c3ccc(F)cc3)sc2-c2ccc(C3CN(C(=O)NCC(F)(F)F)C3)cc2)CC1 [Example 150, 3-(4-(4-((1R,2R)-2-((1-cyanocyclopropyl)carbamoyl)cyclohex-yl)-2-(4-fluorophenyl)thiazol-5-yl)phenyl)-N-(2,2,2-trifluoroethyl) azetidine-1-carboxamide] | 1.6 | 110 |
| CN=S1(=O)CCN(c2ccc(-c3sc(-c4cncc(F)c4)nc3[C@@H]3CCCC[C@H]3C(=O)NC3(C#N)CC3)cc2)CC1 [Example 138, (1R,2R)-N-(1-cyanocyclopropyl)-2-(2-(5-fluoropyridin-3-yl)-5-(4-(1-(methylimino)-1-oxidothiomorpholino)phenyl)thiazol-4-yl)cyclohexane-carboxamide] | 1.9 | 2130 |
| C[C@@H](C#N)NC(=O)[C@@H]1C[C@@H](F)CC[C@H]1c1nc(C(F)F)sc1-c1ccc(N2CCS(=O)(=O)CC2)cc1 [Example 220, (1R,2R,5S)-N-((S)-1-cyanoethyl)-2-(2-(difluoromethyl)-5-(4-(1,1-dioxidothiomorpho-lino)phenyl)thiazol-4-yl)-5-fluorocyclohexane-carboxamide] | 1.6 | 2090 |
| CC(C)OC(=O)N1CC(c2ccc(-c3sc(-c4ccc(F)cc4)nc3[C@@H]3CCCC[C@H]3C(=O)NC3(C#N)CC3)cc2)C1 [Example 15, Isopropyl 3-(4-(4-((1R,2R)-2-((1-cyanocyclopropyl)carbamoyl)cyclohexyl)-2-(4-fluorophenyl)thiazol-5-yl)phenyl)azetidine-1-carboxylate] | 2.4 | 124 |
| N#CC1(NC(=O)[C@@H]2CCCC[C@H]2c2nc(C3CCCCO3)sc2-c2ccc(N3CCS(=O)(=O)CC3)cc2)CC1 (mixture of isomers) [Example 148, (1R,2R)-N-(1-cyanocyclopropyl)-2-(5-(4-(1,1-dioxidothiomorpho-lino)phenyl)-2-((R and S)-tetrahydro-2H-pyran-2-yl)thiazol-4-yl)cyclohexane-carboxamide] | 2.6 | 1930 |
